The target of assay [1] is Recombinant human JAK3 catalytic domain (amino acids 781-1124) (Homo sapiens, UniProt P52333). The experiment in a line: JAK3 inhibition assay. The assay is classed as biochemical. An outline of the steps:
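Radiometric kinase reaction run 45 min at 30° C., stopped with phosphoric acid; activity as vehicle cpm minus 10 μM staurosporine cpm.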

The test system of assay [2] is IL-12 activation of STAT4 in NK-92 cells. The experiment in a line: IL-12 activation of STAT4 in NK-92 cells using AphaLISA SureFire technology. It counts as cell-based. Particulars: Homo sapiens, NK92; IL-12 activation of STAT4 in NK-92 cells, AlphaLISA SureFire; average IC50; read-out: IL12 pSTAT4 IC50. The essentials: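 NK-92 cells, starved of rhIL-2 overnight, were stimulated with rhIL-12 for 30 min at 37 °C with test compounds, then lysed. Phospho-STAT4 (Tyr693) was read by AlphaLISA SureFire. Percent inhibition versus the vehicle-plus-trigger signal was fitted by sigmoidal nonlinear regression to give IC50, averaged over experiments.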
In general terms: Bead proximity is the source of the signal in Alpha formats.

The target in assay [3] is T1, Recombinant human JAK1 (catalytic domain, amino acids 866-1154) (Homo sapiens, UniProt P23458).
T1 construct: catalytic domain, amino acids 866-1154
T1 sequence (P23458 866-1154): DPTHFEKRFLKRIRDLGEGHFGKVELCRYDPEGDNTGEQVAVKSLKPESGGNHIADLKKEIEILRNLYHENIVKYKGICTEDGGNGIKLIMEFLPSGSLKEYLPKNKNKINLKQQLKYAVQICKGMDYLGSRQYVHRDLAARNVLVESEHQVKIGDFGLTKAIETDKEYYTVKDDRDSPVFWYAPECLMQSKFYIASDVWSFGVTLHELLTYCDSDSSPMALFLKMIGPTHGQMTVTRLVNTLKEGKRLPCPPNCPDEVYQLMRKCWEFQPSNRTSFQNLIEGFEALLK
The experiment in a line: JAK1 inhibition assay. The assay is classed as biochemical. Particulars: read-out: JAK1 potency IC50.

In assay [4] the target is T2, Recombinant human TYK2 catalytic domain (amino acids 871-1187) (Homo sapiens, UniProt P29597).
T2 construct: catalytic domain (amino acids 871-1187)
T2 sequence (P29597 871-1187): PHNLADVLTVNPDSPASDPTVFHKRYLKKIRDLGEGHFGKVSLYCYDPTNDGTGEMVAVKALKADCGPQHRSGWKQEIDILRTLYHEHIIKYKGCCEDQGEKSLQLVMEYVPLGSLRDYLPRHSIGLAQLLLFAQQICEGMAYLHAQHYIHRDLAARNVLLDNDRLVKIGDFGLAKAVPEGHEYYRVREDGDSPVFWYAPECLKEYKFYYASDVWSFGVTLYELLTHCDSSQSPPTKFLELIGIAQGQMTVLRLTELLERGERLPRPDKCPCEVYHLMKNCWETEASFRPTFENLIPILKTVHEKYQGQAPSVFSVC
Kind of assay: TYK2 radioactive assay polyGT substrate. Further: 0.1 µM ATP. The assay is classed as biochemical. An outline of the steps:
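Reaction at 30° C. for 120 min, ended with 150 mM phosphoric acid, washed, counted; percent inhibition scaled between vehicle and 10 μM staurosporine cpm.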

Assay [5] has as its system IL-12 activation of STAT4 in NK-92 cells. The experiment in a line: IL-12 activation of STAT4 in NK-92 cells using MSD as readout. The assay is classed as cell-based. Particulars: Homo sapiens, NK92; NK-92 cells, rhIL-12 25 ng/mL, MSD readout; read-out: IL12 pSTAT4 IC50. On the procedure: IL-2 is added freshly to the medium with each medium refreshment step. Cells are cultured in a humidified incubator at 37° C. 5% CO2.
NK-92 cells are pre-incubated with test compounds or vehicle for 30 min at 37° C. 5% CO2. […] NK-92 cells are triggered with rhIL-12 for 45 min at 37° C. 5% CO2.
After 45 min of cytokine stimulation the cells are lysed by addition of 50 μL ice-cold lysis buffer (supplemented with the MSD kit). Plates are frozen at −80° C. for minimal 1 hour to lyse the cells completely. After thawing the levels of phospho-STAT4 are quantified using the Phospho-STAT4 (Tyr693) kit (MSD, Catalogue number K150PAD-2) according to the manufacturer's instructions. Electroluminescent signal is measured on the MSD reader.
The percentage inhibition is calculated as: […]
RLU (trigger/veh): Relative lumescent signal determined in presence of vehicle and trigger
RLU (test compound): Relative luminescent signal determined in presence of test compounds)
PIN values are plotted for compounds tested in dose-response and IC50 values are derived using LIMS Software applying non-linear regression (sigmoidal) curve fitting. The data are expressed as the average IC50 from different experiments.

For orientation: IC50 means the point on the concentration scale where inhibition reaches its midpoint.

Chain of Recombinant human JAK3 catalytic domain (amino acids 781-1124) (P52333 781-1124): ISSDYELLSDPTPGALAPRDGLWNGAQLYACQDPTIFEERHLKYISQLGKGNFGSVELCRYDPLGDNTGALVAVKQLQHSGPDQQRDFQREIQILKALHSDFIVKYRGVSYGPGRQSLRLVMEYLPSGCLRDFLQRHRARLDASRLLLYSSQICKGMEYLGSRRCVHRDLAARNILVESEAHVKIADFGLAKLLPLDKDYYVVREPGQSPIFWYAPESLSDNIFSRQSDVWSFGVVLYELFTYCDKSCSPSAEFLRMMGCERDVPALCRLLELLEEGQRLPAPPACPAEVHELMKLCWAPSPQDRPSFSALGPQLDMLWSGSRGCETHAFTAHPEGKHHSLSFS

Take `Cc1cc(C#N)ncc1Nc1cc(Nc2ccc(C(=O)N(C)C)cn2)c2ncn(C)c2n1` [Compound 67, 6-[[5-[(6-cyano-4-methyl-3-pyridyl)amino]-3-methyl-imidazo[4,5-b]pyridin-7-yl]amino]-N,N-dimethyl-pyridine-3-carboxamide]: the IC50 in assay [1] was 258 nM; in assay [2] it was 54.1 nM; in assay [3], 51.4 nM; in assay [4], 3.38 nM; in assay [5], 233 nM.
On to `Cn1cnc2c(Nc3ccc(S(C)(=O)=O)cn3)cc(NC(C3CC3)C(F)(F)F)nc21` (stereo not shown) [Compound 92, N5-(1-cyclopropyl-2,2,2-trifluoro-ethyl)-3-methyl-N7-(5-methylsulfonyl-2-pyridyl)imidazo[4,5-b]pyridine-5,7-diamine], for which the half-inhibitory concentration (IC50) was 13 nM in assay [1], 9.6 nM in assay [3], 1 nM in assay [4] and 282 nM in assay [5].
In the case of `Cc1cc(C#N)ncc1N(c1cc(Nc2cc(N)ncn2)c2ncn(C)c2n1)C1CC1` [Compound 88, 5-[[7-[(6-aminopyrimidin-4-yl)amino]-3-methyl-imidazo[4,5-b]pyridin-5-yl]-cyclopropyl-amino]-4-methyl-pyridine-2-carbonitrile], the IC50 was 189 nM in assay [1]; 22 nM in assay [2]; 5.3 nM in assay [3]; 0.52 nM in assay [4]; 90.1 nM in assay [5].
Take `CC(C)C(Nc1cc(Nc2cc(N)ncn2)c2ncn(C)c2n1)C(F)(F)F` (stereo not shown) [Compound 93, N7-(6-aminopyrimidin-4-yl)-3-methyl-N5-[2-methyl-1-(trifluoromethyl)propyl)imidazo[4,5-b]pyridine-5,7-diamine]: the IC50 in assay [1] amounted to 77.4 nM; in assay [2] it was 25.4 nM; in assay [3], 57.1 nM; in assay [4] it was 4.99 nM; in assay [5], 201 nM.
The like results for `Cc1cc(C(F)(F)F)ncc1Oc1cc(Nc2cc(N)ncn2)c2ncn(C)c2n1` [Compound 1, N-[3-Methyl-5-(4-methyl-6-trifluoromethyl-pyridin-3-yloxy)-3H-imidazo[4,5-b]pyridin-7-yl]-pyrimidine-4,6-diamine] were, in that order, 1490 nM, 111 nM, 153 nM, 10.1 nM and 539 nM.
For `Cc1cc(C#N)ncc1Oc1cc(Nc2ccc(S(=O)(=O)C(F)F)cc2)c2ncn(C)c2n1` [Compound 68, 5-[7-[4-(difluoromethylsulfonyl)anilino]-3-methyl-imidazo[4,5-b]pyridin-5-yl]oxy-4-methyl-pyridine-2-carbonitrile], the half-inhibitory concentration (IC50) turned out to be 2760 nM in assay [1]; 122 nM in assay [2]; 113 nM in assay [3]; 15.7 nM in assay [4]; 1440 nM in assay [5].
Regarding `Cc1cc(C#N)ncc1Oc1cc(Nc2ccc(S(=O)(=O)C3CC3)cc2)c2ncn(C)c2n1` [Compound 69, 5-[7-(4-cyclopropylsulfonylanilino)-3-methyl-imidazo[4,5-b]pyridin-5-yl]oxy-4-methyl-pyridine-2-carbonitrile], the half-maximal inhibitory concentration (IC50) was 1310 nM in assay [1]; 42.8 nM in assay [2]; 61.3 nM in assay [3]; 6.07 nM in assay [4]; 204 nM in assay [5].

For the origin of these results see patent US11564923B2, “Compounds and pharmaceutical compositions thereof for the treatment of inflammatory disorders” (Galapagos NV, priority 2017, dated 2023).
